Columns and labels:
SRC = SRC (Homo sapiens (Human), UniProt P12931); experiment: ActivX kinase probe assay (human PBMC); type: binding; conditions: SRC, read-out: percent inhibition
IRE1 = IRE1 (Homo sapiens (Human), UniProt O75460); experiment: ActivX kinase probe assay (human PBMC); type: binding; conditions: IRE1, read-out: percent inhibition
mutant G2019S LRRK2 = mutant G2019S LRRK2 (Homo sapiens (Human), UniProt Q5S007, G2019S); experiment: LRRK2 Lantha Screen kinase assay, mutant enzyme; type: biochemical; conditions: geometric mean of 2-5 determinations unless otherwise indicated (a: >=6 determinations; b: single determination)
Description: LRRK2 kinase activity was measured using Lantha Screen technology from Invitrogen. GST-tagged truncated LRRK2 from Invitrogen (Cat # PV4874) was incubated with a fluorescein-labeled peptide substrate based upon ezrin/radixin/moesin (ERM), also known as LRRKtide (Invitrogen cat #PR8976A), in the presence of a dose response of compound. Upon completion, the assay was stopped and detected with a terbium labeled anti-phospho-ERM antibody (Invitrogen, cat #PR8975A). […] Aliquots (3.5 μL) of the 100% DMSO dose response were mixed with 46.5 μL water then 1 μL of this mixture was added to the 3 μL substrate mix in the 384-well plate. The kinase reaction was started with 3 μL of a working solution of LRRK2 enzyme at a concentration of 4 μg/mL. […] The reaction was allowed to progress at room temperature for two hours and then stopped with the addition of 7 μL of detection buffer (20 mM Tris pH 7.6, 0.01% NP-40, 0.02% NaN3, 6 mM EDTA with 2 nM terbium labeled anti-phospho-ERM).
All final concentrations of substrate ATP and enzyme were the same.

NDR1 = NDR1 (Homo sapiens (Human), UniProt Q15208); experiment: ActivX kinase probe assay (human PBMC); type: binding; conditions: NDR1, read-out: percent inhibition
MARK2 = MARK2 (Homo sapiens (Human), UniProt Q7KZI7); experiment: ActivX kinase probe assay (human PBMC); type: binding; conditions: MARK2, read-out: percent inhibition
CDK11, CDK8 = experiment: ActivX kinase probe assay (human PBMC); type: binding
CHK2 = CHK2 (Homo sapiens (Human), UniProt O96017); experiment: ActivX kinase probe assay (human PBMC); type: binding; conditions: CHK2, read-out: percent inhibition
Sequence of CHK2 (O96017 whole entry): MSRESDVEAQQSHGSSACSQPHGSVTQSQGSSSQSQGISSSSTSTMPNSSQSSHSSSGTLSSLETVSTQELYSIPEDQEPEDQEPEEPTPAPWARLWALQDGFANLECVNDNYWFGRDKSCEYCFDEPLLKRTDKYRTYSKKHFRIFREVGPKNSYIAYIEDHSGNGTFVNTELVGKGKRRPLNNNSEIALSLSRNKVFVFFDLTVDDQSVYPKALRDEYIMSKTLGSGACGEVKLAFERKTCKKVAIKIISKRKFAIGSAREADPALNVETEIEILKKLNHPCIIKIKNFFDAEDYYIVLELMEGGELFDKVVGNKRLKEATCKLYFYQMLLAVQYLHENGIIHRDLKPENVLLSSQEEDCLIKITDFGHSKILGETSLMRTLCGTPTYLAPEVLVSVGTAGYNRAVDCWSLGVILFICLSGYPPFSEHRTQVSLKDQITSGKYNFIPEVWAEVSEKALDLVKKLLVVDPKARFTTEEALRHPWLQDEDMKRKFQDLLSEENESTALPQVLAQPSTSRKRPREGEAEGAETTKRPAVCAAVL

FAK = FAK (Homo sapiens (Human), UniProt Q05397); experiment: ActivX kinase probe assay (human PBMC); type: binding; conditions: FAK, read-out: percent inhibition
CDK5 = CDK5 (Homo sapiens (Human), UniProt Q00535); experiment: ActivX kinase probe assay (human PBMC); type: binding; conditions: CDK5, read-out: percent inhibition
ACK = ACK (Homo sapiens (Human), UniProt Q07912); experiment: ActivX kinase probe assay (human PBMC); type: binding; conditions: ACK, read-out: percent inhibition
PAN3 = PAN3 (Homo sapiens (Human), UniProt Q58A45); experiment: ActivX kinase probe assay (human PBMC); type: binding; conditions: PAN3, read-out: percent inhibition
MST1 = MST1 (Homo sapiens (Human), UniProt Q13043); experiment: ActivX kinase probe assay (human PBMC); type: binding; conditions: read-out: percent inhibition
Sequence of MST1 (Q13043 whole entry): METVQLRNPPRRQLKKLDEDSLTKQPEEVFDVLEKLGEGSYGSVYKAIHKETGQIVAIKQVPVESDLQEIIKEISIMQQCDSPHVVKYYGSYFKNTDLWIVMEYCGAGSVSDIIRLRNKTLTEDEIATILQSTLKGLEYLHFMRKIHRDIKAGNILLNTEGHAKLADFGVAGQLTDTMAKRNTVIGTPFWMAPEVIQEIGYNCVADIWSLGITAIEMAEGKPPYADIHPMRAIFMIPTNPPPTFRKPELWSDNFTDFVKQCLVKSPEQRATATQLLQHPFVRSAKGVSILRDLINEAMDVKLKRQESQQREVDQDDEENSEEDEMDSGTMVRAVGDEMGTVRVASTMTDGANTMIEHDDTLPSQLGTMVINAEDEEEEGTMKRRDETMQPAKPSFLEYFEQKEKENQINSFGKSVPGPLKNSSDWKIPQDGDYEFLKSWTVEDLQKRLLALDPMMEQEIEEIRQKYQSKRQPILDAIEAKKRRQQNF

MLK3 = MLK3 (Homo sapiens (Human), UniProt Q16584); experiment: ActivX kinase probe assay (human PBMC); type: binding; conditions: MLK3, read-out: percent inhibition
IRAK4 = IRAK4 (Homo sapiens (Human), UniProt Q9NWZ3); experiment: ActivX kinase probe assay (human PBMC); type: binding; conditions: IRAK4, read-out: percent inhibition
GPRK6 = GPRK6 (Homo sapiens (Human), UniProt P43250); experiment: ActivX kinase probe assay (human PBMC); type: binding; conditions: GPRK6, read-out: percent inhibition
smMLCK = smMLCK (Homo sapiens (Human), UniProt Q15746); experiment: ActivX kinase probe assay (human PBMC); type: binding; conditions: smMLCK, read-out: percent inhibition
FER = FER (Homo sapiens (Human), UniProt P16591); experiment: ActivX kinase probe assay (human PBMC); type: binding; conditions: FER, read-out: percent inhibition
Sequence of FER (P16591 whole entry): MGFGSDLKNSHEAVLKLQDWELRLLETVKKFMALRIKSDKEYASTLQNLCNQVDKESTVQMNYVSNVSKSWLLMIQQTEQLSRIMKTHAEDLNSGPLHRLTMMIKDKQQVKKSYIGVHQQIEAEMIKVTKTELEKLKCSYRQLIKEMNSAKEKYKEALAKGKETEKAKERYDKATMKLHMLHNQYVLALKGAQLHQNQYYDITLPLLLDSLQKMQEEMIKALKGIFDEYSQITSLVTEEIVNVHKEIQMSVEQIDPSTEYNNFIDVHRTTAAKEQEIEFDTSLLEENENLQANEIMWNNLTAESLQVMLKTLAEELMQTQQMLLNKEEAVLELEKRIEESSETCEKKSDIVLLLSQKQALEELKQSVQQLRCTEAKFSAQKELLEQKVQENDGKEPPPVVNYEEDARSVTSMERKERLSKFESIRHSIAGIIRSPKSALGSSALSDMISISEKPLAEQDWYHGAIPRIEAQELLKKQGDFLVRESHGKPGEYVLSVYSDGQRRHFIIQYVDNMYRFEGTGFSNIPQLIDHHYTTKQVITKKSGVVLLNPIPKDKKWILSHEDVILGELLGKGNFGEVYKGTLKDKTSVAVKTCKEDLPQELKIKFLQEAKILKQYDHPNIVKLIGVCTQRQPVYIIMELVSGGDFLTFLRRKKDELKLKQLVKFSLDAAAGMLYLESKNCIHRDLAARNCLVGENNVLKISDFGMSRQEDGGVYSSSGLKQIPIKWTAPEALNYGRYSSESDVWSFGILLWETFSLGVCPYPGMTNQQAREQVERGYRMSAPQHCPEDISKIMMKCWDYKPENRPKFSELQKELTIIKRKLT

NEK9 = NEK9 (Homo sapiens (Human), UniProt Q8TD19); experiment: ActivX kinase probe assay (human PBMC); type: binding; conditions: NEK9, read-out: percent inhibition
MST1, MST2 = experiment: ActivX kinase probe assay (human PBMC); type: binding
MAP2K1 = MAP2K1 (Homo sapiens (Human), UniProt Q02750); experiment: ActivX kinase probe assay (human PBMC); type: binding; conditions: MAP2K1, read-out: percent inhibition
Sequence of MAP2K1 (Q02750 whole entry, the tested form may be a part): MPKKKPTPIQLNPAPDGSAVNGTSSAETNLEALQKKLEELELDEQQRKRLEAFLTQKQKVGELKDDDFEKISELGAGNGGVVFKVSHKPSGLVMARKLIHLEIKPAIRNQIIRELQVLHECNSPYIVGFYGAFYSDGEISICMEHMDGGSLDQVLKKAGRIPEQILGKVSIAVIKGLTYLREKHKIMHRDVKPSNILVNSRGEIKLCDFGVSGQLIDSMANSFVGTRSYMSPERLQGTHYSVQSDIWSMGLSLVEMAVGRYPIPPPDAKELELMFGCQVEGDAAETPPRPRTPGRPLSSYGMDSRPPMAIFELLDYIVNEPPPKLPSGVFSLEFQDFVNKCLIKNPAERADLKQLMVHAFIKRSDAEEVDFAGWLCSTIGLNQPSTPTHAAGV

JAK1 domain2 = JAK1 domain2 (Homo sapiens (Human), UniProt P23458); experiment: ActivX kinase probe assay (human PBMC); type: binding; conditions: JAK1 domain2, read-out: percent inhibition
RSK2 domain2 = RSK2 domain2 (Homo sapiens (Human), UniProt P51812); experiment: ActivX kinase probe assay (human PBMC); type: binding; conditions: RSK2 domain2, read-out: percent inhibition
Sequence of RSK2 domain2 (P51812 whole entry, the tested form may be a part): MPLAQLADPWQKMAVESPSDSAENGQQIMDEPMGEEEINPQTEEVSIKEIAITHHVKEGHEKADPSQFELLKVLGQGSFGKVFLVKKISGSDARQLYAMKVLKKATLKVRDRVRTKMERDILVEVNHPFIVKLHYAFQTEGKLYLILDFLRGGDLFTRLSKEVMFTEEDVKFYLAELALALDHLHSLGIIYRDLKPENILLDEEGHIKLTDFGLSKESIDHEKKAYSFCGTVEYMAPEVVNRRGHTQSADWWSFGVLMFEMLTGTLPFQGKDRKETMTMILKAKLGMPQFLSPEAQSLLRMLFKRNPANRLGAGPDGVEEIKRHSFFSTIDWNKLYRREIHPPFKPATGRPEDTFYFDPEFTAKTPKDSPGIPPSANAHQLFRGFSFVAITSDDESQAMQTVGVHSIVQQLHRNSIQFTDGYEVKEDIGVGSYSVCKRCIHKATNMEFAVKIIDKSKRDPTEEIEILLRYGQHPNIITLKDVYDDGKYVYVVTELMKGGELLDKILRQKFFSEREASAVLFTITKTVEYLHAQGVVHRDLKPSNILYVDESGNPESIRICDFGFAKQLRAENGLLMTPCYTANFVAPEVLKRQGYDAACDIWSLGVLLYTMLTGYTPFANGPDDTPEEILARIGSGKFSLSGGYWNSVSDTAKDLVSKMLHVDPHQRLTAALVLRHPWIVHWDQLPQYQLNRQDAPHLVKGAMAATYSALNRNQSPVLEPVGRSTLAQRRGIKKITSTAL

LOK = LOK (Homo sapiens (Human), UniProt O94804); experiment: ActivX kinase probe assay (human PBMC); type: binding; conditions: LOK, read-out: percent inhibition
Sequence of LOK (O94804 whole entry): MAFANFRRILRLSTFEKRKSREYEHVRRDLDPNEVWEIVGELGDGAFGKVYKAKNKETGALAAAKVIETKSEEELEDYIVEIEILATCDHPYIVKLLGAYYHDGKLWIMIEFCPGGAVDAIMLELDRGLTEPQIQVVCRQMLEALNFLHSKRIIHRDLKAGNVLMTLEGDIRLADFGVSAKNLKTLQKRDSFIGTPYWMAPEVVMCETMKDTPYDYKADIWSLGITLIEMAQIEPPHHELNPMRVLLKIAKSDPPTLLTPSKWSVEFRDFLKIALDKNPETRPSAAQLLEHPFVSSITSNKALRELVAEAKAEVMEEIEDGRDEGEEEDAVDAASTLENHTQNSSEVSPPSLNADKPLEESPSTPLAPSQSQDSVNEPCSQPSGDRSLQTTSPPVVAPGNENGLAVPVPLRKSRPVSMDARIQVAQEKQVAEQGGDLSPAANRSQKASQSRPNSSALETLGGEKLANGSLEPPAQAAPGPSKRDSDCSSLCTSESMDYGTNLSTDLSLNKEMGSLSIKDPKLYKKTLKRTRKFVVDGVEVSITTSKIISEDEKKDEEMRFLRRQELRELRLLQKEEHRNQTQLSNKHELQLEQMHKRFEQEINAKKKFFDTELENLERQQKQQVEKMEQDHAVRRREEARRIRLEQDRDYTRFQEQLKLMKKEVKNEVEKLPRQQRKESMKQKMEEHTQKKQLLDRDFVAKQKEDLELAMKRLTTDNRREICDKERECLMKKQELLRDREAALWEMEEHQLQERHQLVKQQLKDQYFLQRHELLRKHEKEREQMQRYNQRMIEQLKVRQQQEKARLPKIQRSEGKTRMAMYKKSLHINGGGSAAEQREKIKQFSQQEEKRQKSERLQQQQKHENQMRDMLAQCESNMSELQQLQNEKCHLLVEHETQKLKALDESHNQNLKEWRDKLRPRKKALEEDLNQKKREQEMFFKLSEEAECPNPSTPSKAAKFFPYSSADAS

LATS1 = LATS1 (Homo sapiens (Human), UniProt O95835); experiment: ActivX kinase probe assay (human PBMC); type: binding; conditions: LATS1, read-out: percent inhibition
AKT2, AKT3 = experiment: ActivX kinase probe assay (human PBMC); type: binding
MST2 = MST2 (Homo sapiens (Human), UniProt Q13188); experiment: ActivX kinase probe assay (human PBMC); type: binding; conditions: read-out: percent inhibition
GSK3A = GSK3A (Homo sapiens (Human), UniProt P49840); experiment: ActivX kinase probe assay (human PBMC); type: binding; conditions: GSK3A, read-out: percent inhibition
PI4KB = PI4KB (Homo sapiens (Human), UniProt Q9UBF8); experiment: ActivX kinase probe assay (human PBMC); type: binding; conditions: PI4KB, read-out: percent inhibition
MAP3K5 = MAP3K5 (Homo sapiens (Human), UniProt Q99683); experiment: ActivX kinase probe assay (human PBMC); type: binding; conditions: MAP3K5, read-out: percent inhibition
Erk5 = Erk5 (Homo sapiens (Human), UniProt Q13164); experiment: ActivX kinase probe assay (human PBMC); type: binding; conditions: Erk5, read-out: percent inhibition
Sequence of Erk5 (Q13164 whole entry): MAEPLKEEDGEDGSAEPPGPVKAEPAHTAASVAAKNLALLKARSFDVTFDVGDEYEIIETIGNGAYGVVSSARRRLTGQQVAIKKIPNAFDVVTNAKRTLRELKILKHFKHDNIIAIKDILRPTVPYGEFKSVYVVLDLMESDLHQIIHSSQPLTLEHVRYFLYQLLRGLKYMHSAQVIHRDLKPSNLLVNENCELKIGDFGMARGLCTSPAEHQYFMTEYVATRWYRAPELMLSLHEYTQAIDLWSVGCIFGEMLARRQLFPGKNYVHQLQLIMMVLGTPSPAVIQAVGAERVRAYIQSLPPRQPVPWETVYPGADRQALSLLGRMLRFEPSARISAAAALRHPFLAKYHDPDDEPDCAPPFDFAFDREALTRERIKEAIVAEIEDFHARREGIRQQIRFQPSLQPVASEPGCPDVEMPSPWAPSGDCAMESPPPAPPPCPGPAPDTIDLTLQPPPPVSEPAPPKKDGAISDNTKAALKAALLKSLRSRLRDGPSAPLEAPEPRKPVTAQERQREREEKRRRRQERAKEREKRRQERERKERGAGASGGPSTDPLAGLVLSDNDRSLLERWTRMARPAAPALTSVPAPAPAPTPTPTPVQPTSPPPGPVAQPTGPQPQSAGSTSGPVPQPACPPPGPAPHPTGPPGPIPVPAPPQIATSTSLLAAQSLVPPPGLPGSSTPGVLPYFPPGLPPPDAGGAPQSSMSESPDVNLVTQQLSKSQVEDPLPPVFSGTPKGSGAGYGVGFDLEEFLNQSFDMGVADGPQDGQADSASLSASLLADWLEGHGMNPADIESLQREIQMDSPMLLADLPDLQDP

Cn1cc(-c2c[nH]c3ncnc(N4CCOCC4)c23)cc1C#N [Example 217, 1-methyl-4-[4-(morpholin-4-yl)-7H-pyrrolo[2,3-d]pyrimidin-5-yl]-1H-pyrrole-2-carbonitrile]
inhibition at 0.1 µM (SRC; 0.1 μM): -1% | inhibition at 1 µM (SRC; 1 μM): 1.1% | inhibition at 0.1 µM (IRE1; 0.1 μM): 3.2% | inhibition at 1 µM (IRE1; 1 μM): -19.5% | IC50 (mutant G2019S LRRK2): 13 nM | inhibition at 0.1 µM (NDR1; 0.1 μM): 16.3% | inhibition at 1 µM (NDR1; 1 μM): -17.7% | inhibition at 0.1 µM (MARK2; 0.1 μM): -5% | inhibition at 1 µM (MARK2; 1 μM): 13.1% | percent inhibition (CDK11, CDK8; 0.1 μM): −5.6% | percent inhibition (CDK11, CDK8; 1 μM): −5.2% | inhibition at 0.1 µM (CHK2; 0.1 μM): 8.6% | inhibition at 1 µM (CHK2; 1 μM): 6.4% | inhibition at 0.1 µM (FAK; 0.1 μM): 8.1% | inhibition at 1 µM (FAK; 1 μM): 17.4% | inhibition at 0.1 µM (CDK5; 0.1 μM): 0.5% | inhibition at 1 µM (CDK5; 1 μM): 7.9% | inhibition at 0.1 µM (ACK; 0.1 μM): -9.8% | inhibition at 1 µM (ACK; 1 μM): -19.5% | inhibition at 0.1 µM (PAN3; 0.1 μM): 5.6% | inhibition at 1 µM (PAN3; 1 μM): -7.5% | inhibition at 0.1 µM (MST1; 0.1 μM): 25.6% | inhibition at 1 µM (MST1; 1 μM): 73.5% | inhibition at 0.1 µM (MLK3; 0.1 μM): -13.5% | inhibition at 1 µM (MLK3; 1 μM): -9.6% | inhibition at 0.1 µM (IRAK4; 0.1 μM): 14.7% | inhibition at 1 µM (IRAK4; 1 μM): 34.5% | inhibition at 0.1 µM (GPRK6; 0.1 μM): -0.8% | inhibition at 1 µM (GPRK6; 1 μM): 3.6% | inhibition at 0.1 µM (smMLCK; 0.1 μM): 1.7% | inhibition at 1 µM (smMLCK; 1 μM): 3.5% | inhibition at 0.1 µM (FER; 0.1 μM): 5.2% | inhibition at 1 µM (FER; 1 μM): 16.3% | inhibition at 0.1 µM (NEK9; 0.1 μM): -11% | inhibition at 1 µM (NEK9; 1 μM): 1.5% | percent inhibition (MST1, MST2; 0.1 μM): 21.9% | percent inhibition (MST1, MST2; 1 μM): 72.6% | inhibition at 0.1 µM (MAP2K1; 0.1 μM): 17.2% | inhibition at 1 µM (MAP2K1; 1 μM): -1.5% | inhibition at 0.1 µM (JAK1 domain2; 0.1 μM): 7.4% | inhibition at 1 µM (JAK1 domain2; 1 μM): 10.1% | inhibition at 0.1 µM (RSK2 domain2; 0.1 μM): -4.1% | inhibition at 1 µM (RSK2 domain2; 1 μM): 2.8% | inhibition at 0.1 µM (LOK; 0.1 μM): -6.4% | inhibition at 1 µM (LOK; 1 μM): 56.1% | inhibition at 0.1 µM (LATS1; 0.1 μM): -3.9% | inhibition at 1 µM (LATS1; 1 μM): 1.9% | percent inhibition (AKT2, AKT3; 0.1 μM): −9.7% | percent inhibition (AKT2, AKT3; 1 μM): −3.8% | inhibition at 0.1 µM (MST2; 0.1 μM): 34.9% | inhibition at 1 µM (MST2; 1 μM): 83.2% | inhibition at 0.1 µM (GSK3A; 0.1 μM): 0.6% | inhibition at 1 µM (GSK3A; 1 μM): 8.9% | inhibition at 0.1 µM (PI4KB; 0.1 μM): 9.9% | inhibition at 1 µM (PI4KB; 1 μM): -0.5% | inhibition at 0.1 µM (MAP3K5; 0.1 μM): 7% | inhibition at 1 µM (MAP3K5; 1 μM): 44.5% | inhibition at 0.1 µM (Erk5; 0.1 μM): -2.6% | inhibition at 1 µM (Erk5; 1 μM): -5.4%

Reference: patent publication US9156845B2, “4-(substituted amino)-7H-pyrrolo[2,3-d] pyrimidines as LRRK2 inhibitors” (Pfizer Inc., priority 2012, dated 2015)
